Reference: ChEMBL document CHEMBL5724914, “Linking interpersonal differences in gut microbiota composition and drug biotransformation activity” (2024)

Legend:
[1] = (§1) The drug is tested on Z-019 corresponding to rat gut metagenome with ENA study accession number: PRJEB37062 and ENA sample accession number: ERS12561818 for biotransformation under anaerobic condition. The drug concentrations were measured over 9 timepoints collected between 0 and 24 hours of incubation by liquid-chromatography-coupled mass spectrometry (LC–MS); details: 2 µM
[2] = human gut metagenome, 24 h, 2 µM
[3] = as §1, with “on Z-030” for “on Z-019”, “to mouse” for “to rat”, “number: ERS12561829” for “number: ERS12561818”; details: 2 µM
[4] = human gut metagenome, 24 h, 2 µM; remark: listed apart in the source
[5] = as §1, with “on WLS-098” for “on Z-019”, “to human” for “to rat”, “number: ERS12561754” for “number: ERS12561818”; details: 2 µM
[6] = as §1, with “on Z-028” for “on Z-019”, “to mouse” for “to rat”, “number: ERS12561827” for “number: ERS12561818”; details: 2 µM
[7] = human gut metagenome, 24 h, 2 µM; remark: listed apart in the source
[8] = as §1, with “on Z-009” for “on Z-019”, “to pig” for “to rat”, “number: ERS12561809” for “number: ERS12561818”; details: 2 µM
[9] = as §1, with “on Z-002” for “on Z-019”, “to rabbit” for “to rat”, “number: ERS12561802” for “number: ERS12561818”; details: 2 µM
[10] = as §1, with “Z-023” for “Z-019”, “to” for “to rat gut”, “ERS12561822” for “ERS12561818”; details: 2 µM
[11] = as §1, with “on WLS-052” for “on Z-019”, “to human” for “to rat”, “number: ERS12561747” for “number: ERS12561818”; details: 2 µM
[12] = as §1, with “on WLS-350” for “on Z-019”, “to human” for “to rat”, “number: ERS12561789” for “number: ERS12561818”; details: 2 µM
[13] = as §1, with “on WLS-027” for “on Z-019”, “to human” for “to rat”, “number: ERS12561744” for “number: ERS12561818”; details: 2 µM
[14] = human gut metagenome, 24 h, 2 µM; remark: listed apart in the source
[15] = human gut metagenome, 24 h, 2 µM; remark: listed apart in the source
[16] = as §1, with “Z-026” for “Z-019”, “to” for “to rat gut”, “ERS12561825” for “ERS12561818”; details: 2 µM
[17] = human gut metagenome, 24 h, 2 µM; remark: listed apart in the source
[18] = as §1, with “Z-021” for “Z-019”, “to” for “to rat gut”, “ERS12561820” for “ERS12561818”; details: 2 µM
[19] = human gut metagenome, 24 h, 2 µM; remark: listed apart in the source
[20] = as §1, with “Z-008” for “Z-019”, “to” for “to rat gut”, “ERS12561808” for “ERS12561818”; details: 2 µM

Measured: Bacterial Biotransformation
Also: call rule not given here.

CC(C(=O)O)c1ccc2c(c1)Cc1cccnc1O2 (stereo not given) [PRANOPROFEN]
Compound NOT metabolized: [1] | [16]
Compound metabolized: all other assays above

O=C(CCCN1CCC(O)(c2ccc(Cl)cc2)CC1)c1ccc(F)cc1 [HALOPERIDOL]
Compound metabolized: [5] | [7] | [8] | [9] | [10] | [13] | [17]
Compound NOT metabolized: all other assays above

COc1ccc2[nH]c([S+]([O-])Cc3ncc(C)c(OC)c3C)nc2n1 (stereo not given) [TENATOPRAZOLE]
Compound NOT metabolized: [4] | [7] | [9] | [10] | [12] | [14] | [18]
Compound metabolized: all other assays above

CCCC(=O)Nc1ccc(OCC(O)CNC(C)C)c(C(C)=O)c1 (stereo not given) [ACEBUTOLOL]
Compound NOT metabolized: [1] | [3] | [6] | [8] | [11] | [13] | [14] | [16] | [20]
Compound metabolized: all other assays above

CCOc1ccc(NC(C)=O)cc1 [PHENACETIN]
Compound NOT metabolized: all assays above

CCOC(=O)[C@H](CCc1ccccc1)N[C@@H](C)C(=O)N1[C@H](C(=O)O)C[C@@H]2CCC[C@@H]21
Compound NOT metabolized: [1] | [3] | [6] | [16] | [20]
Compound metabolized: all other assays above

CC[C@H](C)C(=O)O[C@H]1C[C@@H](C)C=C2C=C[C@H](C)[C@H](CC[C@@H]3C[C@@H](O)CC(=O)O3)[C@H]21 [LOVASTATIN]
Compound metabolized: [1] | [3] | [6] | [10] | [15] | [16] | [18]
Compound NOT metabolized: all other assays above

O=c1n(CCCN2CCN(c3cccc(Cl)c3)CC2)nc2ccccn12 [TRAZODONE]
Compound metabolized: [5] | [7] | [9] | [12] | [13] | [17]
Compound NOT metabolized: all other assays above
